Results published in the supplement of paper PMC4862054.

Assays:
[1] = system: MDA-MB-453; details: 72 h
How it was run: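 Viability of breast cancer cell lines was measured with CellTiter-Blue after 72 h of incubation on compound-loaded 384-well plates. Cells were seeded in 20 µl onto compound dissolved in 5 µl medium, and 2.5 µl reagent was added for 2 h at 37 °C before reading at 560/590 nm. EC50 was fitted from percent-inhibition dose-response data censored at the highest concentration, normalised per plate to vehicle and a positive kill control, with zero drug sensitivity score rows dropped.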

[2] = system: BT-474; test: normalised viability (% of control), CellTiter-Blue; higher = more viable cells (about 100 = DMSO control); details: 1000 nM; incubation time: 72 h
How it was run: (§1)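 After 72 h on compound-loaded 384-well plates, breast cancer cell lines received 2.5 µl CellTiter-Blue reagent for 2 h at 37 °C. Fluorescence at 560/590 nm was scaled per plate so that vehicle was 100 and a positive kill control was 0. The value stands for normalised viability at a single listed concentration of the series.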

[3] = system: BT-549; test: as above; details: 1000 nM; incubation time: 72 h
How it was run: as §1

[4] = system: CAL-120; test: as above; details: 1000 nM; incubation time: 72 h
How it was run: as §1

[5] = system: CAL-148; test: as above; details: 10 nM; incubation time: 72 h
How it was run: as §1

[6] = system: CAL-51; test: as above; details: 10 nM; incubation time: 72 h
How it was run: as §1

[7] = system: CAL-85-1; test: as above; details: 10 nM; incubation time: 72 h
How it was run: as §1

[8] = system: DU-4475; test: as above; details: 10 nM; incubation time: 72 h
How it was run: as §1

[9] = system: HCC1143; test: as above; details: 1000 nM; incubation time: 72 h
How it was run: as §1

[10] = system: HCC1599; test: as above; details: 1000 nM; incubation time: 72 h
How it was run: as §1

[11] = system: HCC1937; test: as above; details: 1000 nM; incubation time: 72 h
How it was run: as §1

[12] = system: HDQ-P1; test: as above; details: 10 nM; incubation time: 72 h
How it was run: as §1

[13] = system: Hs578T; test: as above; details: 1000 nM; incubation time: 72 h
How it was run: as §1

[14] = system: MDA-MB-231; test: as above; details: 1000 nM; incubation time: 72 h
How it was run: as §1

[15] = system: MDA-MB-436; test: as above; details: 1000 nM; incubation time: 72 h
How it was run: as §1

[16] = system: MDA-MB-453; test: as above; details: 10 nM; incubation time: 72 h
How it was run: as §1

[17] = system: MDA-MB-468; test: as above; details: 1000 nM; incubation time: 72 h
How it was run: as §1

[18] = system: MFM-223; test: as above; details: 1000 nM; incubation time: 72 h
How it was run: as §1

[19] = system: SK-BR-3; test: as above; details: 1000 nM; incubation time: 72 h
How it was run: as §1

[20] = system: CAL-148; test: as above; details: 1000 nM; incubation time: 72 h
How it was run: as §1

[21] = system: CAL-51; test: as above; details: 1000 nM; incubation time: 72 h
How it was run: as §1

[22] = system: CAL-85-1; test: as above; details: 1000 nM; incubation time: 72 h
How it was run: as §1

[23] = system: DU-4475; test: as above; details: 1000 nM; incubation time: 72 h
How it was run: as §1

[24] = system: MDA-MB-453; test: as above; details: 1000 nM; incubation time: 72 h
How it was run: as §1

[25] = system: CAL-120; test: drug sensitivity score (DSS), CellTiter-Blue viability (DSS (AUC-based score)); higher = stronger viability inhibition; extreme values may be limits of the assay; details: incubation time: 72 h
Description: (§2)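 DSRT with the CellTiter-Blue (resazurin reduction) viability readout, fluorescence 560/590 nm, 72 h incubation. Plates were normalised to DMSO and benzethonium chloride controls. DSS is computed from the area under the fitted dose-response curve (5 or 9 concentrations).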

[26] = system: HCC1599; test: as above; details: incubation time: 72 h
Description: as §2

[27] = system: Hs578T; test: as above; details: incubation time: 72 h
Description: as §2

[28] = system: MDA-MB-436; test: as above; details: incubation time: 72 h
Description: as §2

What does the source list for `C/C(=C\c1csc(C)n1)[C@@H]1C[C@@H]2O[C@]2(C)CCC[C@H](C)[C@H](O)[C@@H](C)C(=O)C(C)(C)[C@@H](O)CC(=O)O1` [Patupilone]?
EC50, CellTiter-Blue viability [1]: 4.4 nM; normalised viability [2]: 25.4%; normalised viability [3]: 22.1%; normalised viability [4]: 23.4%; normalised viability [5]: 32.3%; normalised viability [6]: 59.1%; normalised viability [7]: 33.9%; normalised viability [8]: 57.5%; normalised viability [9]: 32%; normalised viability [10]: 79.3%; normalised viability [11]: 20.4%; normalised viability [12]: 92.5%; normalised viability [13]: 13.2%; normalised viability [14]: 30.7%; normalised viability [15]: 40.1%; normalised viability [16]: 47.3%; normalised viability [17]: 54.8%; normalised viability [18]: 45.7%; normalised viability [19]: 15.2%; normalised viability [20]: 19.9%; normalised viability [21]: 13.6%; normalised viability [22]: 30.3%; normalised viability [23]: 2.77%; normalised viability [24]: 20.9%; drug sensitivity score [25]: 19.8; drug sensitivity score [26]: 1.08; drug sensitivity score [27]: 23.1; drug sensitivity score [28]: 15.4
